“Also recorded” adds a separate entry of the source. Square brackets hold non-standard residues; d marks the D form. Ends that are not written are not given here. Aib = CC(C)(N)C(=O)O
The substances below were run on bacteria (assay: Binding of targeting peptides to microorganisms (Table 3)). Details: microorganism bound by the targeting peptide; binding in aqueous buffers chosen by peptide solubility, preferably 1x PBS.

Row | Substance | Target(s)
1 | PF-097 (QPTQGEQGTRPRRPTPMRGLLI; Peptide with targeting and/or antimicrobial activity) | C. jeikeium
2 | PF-275 (LVSGVANTVKNTAHTVGNTAKHAGHVAADTTVKATKKQQVK; Peptide with targeting and/or antimicrobial activity) | S. mutans
3 | PF-132 (RPGDGAAEQGRSR; Peptide with targeting and/or antimicrobial activity) | S. epidermidis; also recorded: C. jeikeium
4 | PF-291 (DVDGAIESEL; Peptide with targeting and/or antimicrobial activity) | S. mutans; also recorded: E. coli
5 | PF-169 (APGSAADSPRSRADD; Peptide with targeting and/or antimicrobial activity) | S. epidermidis; also recorded: E. coli; also recorded: C. albicans; also recorded: E. faecalis; also recorded: C. jeikeium
6 | PF-185 (RPAQARQGPGGLIADRHIRA; Peptide with targeting and/or antimicrobial activity) | E. coli; also recorded: P. aeruginosa
7 | PF-267 (SDDKRTD; Peptide with targeting and/or antimicrobial activity) | M. luteus
8 | PF-165 (GPVSVVASLRRGTTVQRHSQNNHNKGKP; Peptide with targeting and/or antimicrobial activity) | MRSA and C. jejuni
9 | PF-246 (QPDEKAEFFDPSLDKVYRHPTFYHIPDGIEHM; Peptide with targeting and/or antimicrobial activity) | S. mutans
10 | PF-351 (YLFFKGKKVAEEEATKDEVKR; Peptide with targeting and/or antimicrobial activity) | S. mutans
11 | MLTSRKKRLKKIVEEQNKKDESI [PF-336] | S. mutans; also recorded: E. coli
12 | PF-225 (MNCASPEFKKLMELYK; Peptide with targeting and/or antimicrobial activity) | S. epidermidis
13 | PF-254 (FIYGVGFVPHFWLWKWLFSPWIAWPLMLLGYYIWFLT; Peptide with targeting and/or antimicrobial activity) | S. epidermidis; also recorded: M. luteus; also recorded: P. aeruginosa; also recorded: A. baumannii
14 | PF-320 (DSGYYALLENKEERVVWDGEVVANNIFNNLWIVVNKVKTG; Peptide with targeting and/or antimicrobial activity) | S. mutans; also recorded: E. coli

Same assay, conditions: microorganism the targeting peptide binds; binding in aqueous buffers that varied with peptide solubility, preferably 1x PBS

Row | Substance | Target(s)
15 | 1T-252 (MKKNLKRFYALVLGFIIGCLFVSILIFIGY; Peptide with targeting and/or antimicrobial activity) [Peptide 1T-252] | F. nucleatum; also recorded: S. sanguinis
16 | TT-308 (GLVIIPNLIALIILFSQVRQQTKDYFSNPKLSSR; Peptide with targeting and/or antimicrobial activity) | F. nucleatum
17 | 1T-301 (SKLPRVLDASLKL; Peptide with targeting and/or antimicrobial activity) [Peptide 1T-301] | F. nucleatum; also recorded: S. gordonii; also recorded: S. sanguinis

Same assay, conditions: peptide binding in aqueous buffers that varied depending on peptide solubility; preferably 1x PBS

Row | Substance | Target(s) (microorganism bound by the targeting peptide) | Target(s) (microorganisms bound by the targeting peptide)
18 | PF-782 (TGPRRGIDLTSNRALSEVLDEGLELNSRK; Peptide with targeting and/or antimicrobial activity) | Mycobacteria spp. | –
19 | PF-720 (SLDMGK; Peptide with targeting and/or antimicrobial activity) | S. mutans | –
20 | PF-388 (ITPLLDEIGKVCIDKISK; Peptide with targeting and/or antimicrobial activity) | – | E. faecalis; also recorded: C. jeikeium; also recorded: C. jejuni
21 | PF-779 (IYGDFFNFYLCDISLKVNGLQPGGPVRTVKLFGQPTGRCTPQ; Peptide with targeting and/or antimicrobial activity) | Mycobacteria spp. | –
22 | PF-505 (GYTKDPGTGI; Peptide with targeting and/or antimicrobial activity) | – | S. mutans
23 | PF-793 (YTQ[Aib]NNASAYAMLLTNKDTVP; ends and bridges not checked) | S. mutans | –
24 | PF-671 (TVSAFRTVH; Peptide with targeting and/or antimicrobial activity) | S. mutans; also recorded: E. coli | –
25 | PF-711 (KTAGPTGTIYKTN; Peptide with targeting and/or antimicrobial activity) | S. mutans | –
26 | PF-714 (FVVTQRMLRMYKK; Peptide with targeting and/or antimicrobial activity) | L. pneumophila | –
27 | PF-C008 (AQPRRTWLVNFGEVPSPGLTNDGMPDH; Peptide with targeting and/or antimicrobial activity) | A. naeslundii | –
28 | PF-C271 (FFPSYYSIIITYF; Peptide with targeting and/or antimicrobial activity) | A. naeslundii; also recorded: F. nucleatum; also recorded: P. gingivalis; also recorded: S. mutans; also recorded: T. denticola | –
29 | PF-507 (LALSIANLFKKKA; Peptide with targeting and/or antimicrobial activity) | – | S. mutans; also recorded: E. coli
30 | PF-481 (DELYEIMDKVIEEFNKDIEQNNNNGNNEDLTENKIN; Peptide with targeting and/or antimicrobial activity) | – | C. jeikeium

Same assay, conditions: peptide binding in aqueous buffers varied by peptide solubility; preferably 1x PBS

Row | Substance | Target(s) (microorganism bound by the targeting peptide)
31 | 1T-11 (RISE; Peptide with targeting and/or antimicrobial activity) [Peptide 1T-11] | S. mutans; also recorded: S. epidermidis; also recorded: P. aeruginosa
32 | 1T-58 (CDDLHALERAGKLDALLSA; Peptide with targeting and/or antimicrobial activity) [Peptide 1T-58] | P. aeruginosa
33 | 1T-105 (GEGLPPPVLHLPPPRMSGR; Peptide with targeting and/or antimicrobial activity) [Peptide 1T-105] | S. epidermidis; also recorded: S. gordonii; also recorded: S. mitis; also recorded: S. mutans; also recorded: S. oralis
34 | 1T-96 (VAGACAQPFGGQ; Peptide with targeting and/or antimicrobial activity) [Peptide 1T-96] | S. gordonii; also recorded: S. mitis; also recorded: S. mutans; also recorded: S. oralis; also recorded: S. sanguinis
35 | 1T-18 (YSKTLHFAD; Peptide with targeting and/or antimicrobial activity) [Peptide 1T-18] | S. aureus; also recorded: S. epidermidis; also recorded: C. striatum; also recorded: P. aeruginosa
36 | 1T-34 (AFWLNILLTLLGYIPGIVHAVYIIAKR; Peptide with targeting and/or antimicrobial activity) [Peptide 1T-34] | S. aureus; also recorded: S. epidermidis; also recorded: C. jeikeium; also recorded: C. xerosis; also recorded: C. striatum; also recorded: P. aeruginosa
37 | 1T-86 (HRKNPVLGVGRRHRAHNVA; Peptide with targeting and/or antimicrobial activity) [Peptide 1T-86] | S. mitis; also recorded: S. oralis; also recorded: S. salivarious
38 | 1T-170 (AYGKVFSMDIMLSENDKLIVLRISHHSAWH; Peptide with targeting and/or antimicrobial activity) [Peptide 1T-170] | P. gingivalis
39 | 1T-66 (DTDCLSRAYAQRIDELDKQYAGIDKPL; Peptide with targeting and/or antimicrobial activity) [Peptide 1T-66] | S. mutans; also recorded: S. aureus; also recorded: S. epidermidis; also recorded: C. jeikeium; also recorded: C. xerosis; also recorded: C. striatum; also recorded: P. aeruginosa
40 | 1T-29 (GSVIKKRRKRMSKKKHRKMLRRTRVQRRKLGK; Peptide with targeting and/or antimicrobial activity) [Peptide 1T-29] | S. epidermidis; also recorded: C. jeikeium; also recorded: C. xerosis; also recorded: C. striatum; also recorded: P. aeruginosa; also recorded: S. mutans; also recorded: S. aureus
41 | 1T-12 (FGNIFKGLKDVIETIVKWTAAK; Peptide with targeting and/or antimicrobial activity) [Peptide 1T-12] | C. xerosis; also recorded: C. striatum; also recorded: S. epidermidis; also recorded: S. mutans
42 | 1T-41 (KRGSKIVIAIAVVLIVLAGVWVW; Peptide with targeting and/or antimicrobial activity) [Peptide 1T-41] | S. mutans; also recorded: S. aureus; also recorded: S. epidermidis; also recorded: C. jeikeium; also recorded: C. striatum; also recorded: P. aeruginosa
43 | 1T-64 (QTVHHIHMHVLGQRQMHWPPG; Peptide with targeting and/or antimicrobial activity) [Peptide 1T-64] | S. aureus; also recorded: S. epidermidis; also recorded: C. jeikeium; also recorded: C. xerosis; also recorded: C. striatum; also recorded: P. aeruginosa
44 | 1T-8 (FSVAACGEQRAVTFVLLIEDLI; Peptide with targeting and/or antimicrobial activity) [Peptide 1T-8] | M. xanthus
45 | 1T-94 (DQVAHSGDMLVQARRRDS; Peptide with targeting and/or antimicrobial activity) [Peptide 1T-94] | S. mitis; also recorded: S. mutans; also recorded: S. oralis
46 | 1T-13 (FRSPCINNNSLQPPGVYPAR; Peptide with targeting and/or antimicrobial activity) [Peptide 1T-13] | S. aureus; also recorded: S. epidermidis; also recorded: P. aeruginosa

Reference: patent publication US9597407B2, “Targeted antimicrobial moieties” (C3 Jian, Inc., priority 2009, dated 2017)
